Laboratory results reported in a melting point compilation (Tetko et al.; mined from patent text by program, amines drawn as free bases though some values may be those of a salt).
Non-standard residues stand in square brackets, D forms with d. Residues, ends and D or L forms follow the SMILES beside them. *: point of attachment. NHPhenethyl = c1ccc(CCN*)cc1; pGlu = O=C1CC[CH](C(=O)O)N1

| melting point [°C] | SMILES |
| --- | --- |
| 96 to 98 | O=C(O)C(=O)c1ccc(OCCOC2CCCCC2)cc1 |
| 139 to 141 | COC(C)Cc1nc2c(N)nc3ccccc3c2n1CC(C)C (configuration not stated) |
| 246 to 247 | COc1ccc(C(=O)NC2CCCCC2)c2c1OCC2CC(=O)O (configuration not stated) |
| > 300 | COc1ccc(C(=O)Nc2cc([N+](=O)[O-])ccc2C)cc1OC |
| 190 to 191 | S=C(Nc1ccc(Cl)cn1)N[C@@H]1C[C@@H]1c1ccccc1 |
| 84 to 85 | COC1(c2cc(F)cc(Sc3ccc(C(C)ONC(N)=O)cc3)c2)CCOCC1 (configuration not stated) |
| 83 to 85 | Cc1ccc([N+](=O)[O-])c2c1CCC(C)O2 (configuration not stated) |
| 300 | CC1(C)C(=O)Nc2cc3[nH]c(-c4ccc(-n5ccnc5)cc4)nc3cc21 |
| 111 to 112 | CCOCc1nc2c(N)nc3ccccc3c2n1CCOCC#Cc1ccccc1 |
| > 300 | CC(C)[C@H](NC1CCCCC1)C(=O)O |
| 188 to 189 | Cc1csc(N2N=C(c3ccc([N+](=O)[O-])cc3)c3cc4c(cc3CC2C)OCO4)n1 (configuration not stated) |
| 142 to 145 | O=S(=O)(c1ccccc1)n1ccc2cc3c(cc21)OCO3 |
| 109 to 111 | c1ccc(CN2CCC3(CC2)Oc2ccccc2Cn2cccc23)cc1 |
| 262 to 264 | Cc1nn(C)c2nc(-c3ccccc3)cc(O)c12 |
| 91 to 92 | CCOC(=O)c1cc2c(C(F)(F)F)ccc3c2n1CCN3C |
| 129 to 132 | Nc1nc(NC2Cc3ccccc3C2)nc2c1ncn2C1OC(CO)C(O)C1O (configuration not stated) |
| 177 to 178 | Cc1cc(NC(=O)C(CS)Cc2ccccc2)cc(C(=O)O)c1 (configuration not stated) |
| 273 to 274 | Cc1cccc(C)c1CNc1cc(C2=NCCN2)cc2c1nc(C)n2C |
| 150 | CC(OCc1cc2nc(Cl)ccc2n1S(=O)(=O)c1ccccc1)C(=O)O (configuration not stated) |
| 145 | O=C(NO)c1cc2c(Oc3ccc(Cl)cc3)cncc2s1 |
| 136 to 138 | CCCC(=O)N(C)SN(C(=O)NC(=O)c1c(F)cccc1F)c1ccc(Oc2ccc(C(F)(F)F)cc2Cl)cc1F |
| 238 to 240 | COc1cccc(OC)c1C(=O)Nc1nnc(-c2ccc(Cl)cc2)s1 |
| 94 to 96 | CCCc1c(OCCCC(=O)NCCc2cccnc2)ccc(C(C)=O)c1O |

| melting point [°C] | SMILES |
| --- | --- |
| 115 to 119 | CSc1cc(Oc2cccc(C(F)(F)F)c2)nc(C(=O)Nc2ccccc2)c1 |
| 113 to 115 | CC(C)(C)OC(=O)CN1C(=O)[C@H](N)CCc2ccccc21 |
| > 250 | O=Cc1c[nH]c2c1ccc1c3cc(Br)ccc3[nH]c12 |
| 60 to 62 | O=C(NC1CCN(Cc2ccccc2)CC1)c1cccc(OCc2ccc3ccccc3n2)c1 |
| 85 to 87 | CCCCc1oc2ccc(-c3nc(C)no3)cc2c1C(=O)c1ccc(OCCCBr)cc1 |
| 161 to 162 | O=P(c1ccccc1)(c1ccccc1)c1ccccc1C1OCCO1 |
| 178 to 179 | Cc1c(CNCC(C)(C)C)[nH]c2c(C)c(NC(=O)c3ccc(OC[C@@H]4CCCO4)cc3)ccc12 |
| 243 to 245 | Cc1oc(-c2ccccc2)nc1CCOc1ccc(C[C@H](NC(=O)C(F)=Cc2ccccc2)C(=O)O)cc1Br |
| 127 to 130 | Cc1ccccc1-c1nc(COc2cccc3cc(NS(=O)(=O)C(F)(F)F)ccc23)co1 |
| 271 to 272 | CC(C)(C)C(NC(=O)c1ccc(Cl)cc1)Nc1c(Nc2cccc(F)c2)c(=O)c1=O (configuration not stated) |
| 143 to 144 | CC(C)OC(=O)c1ccccc1SN(C(=O)NC(=O)c1ccccc1Cl)c1ccc(OC(F)(F)F)cc1 |
| 223 to 224 | O=C(Nc1cc(Cl)c(O)c(Cl)c1)c1ccc(F)cc1O |
| 165 to 166 | Cc1nnc(-c2ccc3occ(-c4cnn(Cc5ccccc5C(F)(F)F)c4)c3c2)o1 |
| 149 to 150 | CSC1C(=O)Nc2c(Oc3ccccc3)cccc21 (configuration not stated) |
| 142 to 148 | CCOC(=O)C1=C(O)C(=O)NCC1 |
| 173 to 176 | CC(C)COC(=O)Nc1cccc(Cn2ccc3cc(C(=O)O)ccc32)c1 |
| 126 to 129 | COCc1ccc(OCC(=O)O)c(NC(=O)c2ccc(OCCCCc3ccccc3)cc2)c1 |
| 203 to 204 | CN(C)C=Nc1nc(=O)n(S(=O)(=O)c2ccccc2)cc1F |
| 112 to 113 | CN(C)CCNC(=O)Cc1ccc2ccn(C3CCN(CCc4ccc(F)cc4)CC3)c2c1 |
| 265 to 268 | CCOC(=O)c1cn(-c2nnc(C)s2)c2nc(N3CC[C@H](N)C3)c(F)cc2c1=O |
| 118 | Cc1cccc(CC(=O)c2ccnc(-c3ccc(C=O)cc3)c2)n1 |
| 176 to 178 | CCOC(=O)C(C#N)C(=O)c1nn(-c2ccccc2)c2c1CSc1ccccc1-2 (configuration not stated) |
| 162 to 163 | Cc1cc(C)c2c(c1)c(-c1ccccc1Cl)c(C(=O)O)c(=O)n2C |

| melting point [°C] | SMILES |
| --- | --- |
| 63 to 66 | Cc1cc(CNC(=O)c2sc(N3C[C@@H](C)N(Cc4cc(F)cc(F)c4)C3=O)nc2C)no1 |
| 131 to 136 | CCCCCCC(=O)Nc1ccn(C2OC(CO)C(O)C2O)c(=O)n1 (configuration not stated) |
| 204 to 207 | O=C1NCCN1c1ccncc1 |
| 84.5 to 86 | O=Cc1ccccc1Oc1ccc(I)cc1 |
| 128 to 130 | Clc1cccc(Cl)c1CSCc1c(Cl)cccc1Cl |
| 166 | COC(=O)c1c(-c2ccc(Cl)cc2)c2cc(OCc3ccccc3)ccc2c(=O)n1CC(C)C |
| 185 to 195 | CC(=S)NC[C@H]1CN(c2ccc3c(c2)CCCc2cnoc2-3)C(=O)O1 |
| > 230 | CC(C)(CO)CNC(=O)c1ccc2c(c1)C(=NNc1ccc(S(N)(=O)=O)cc1)C(=O)N2 |
| 224 to 225 | Cc1cc(C)c(Nc2nc(Nc3ccc(C#N)cc3)ncc2N)c(C)c1 |
| 98.4 | COc1cc(O)c(C(=O)C=Cc2ccco2)c(OC)c1 |
| 188 to 192 | NC[C@@H]1C[C@@H](CC(=O)O)C(=O)N1CCCc1ccccc1 |
| 76.7 to 78.8 | CCOC(=O)c1cn(-c2cccc(COCc3ccccn3)c2)cn1 |
| 85 | Cc1[nH]c(C=O)c(C)c1CCCO |
| 171 to 172 | CSc1ncnc(SC)c1NC(=O)CN1CCN(CCSc2nc3ccccc3o2)CC1 |
| 210 to 211 | CCc1cn(C2OC(CNC(=O)C(C)Oc3c(Cl)cc(Cl)c(OC)c3Cl)C(O)C2F)c(=O)[nH]c1=O (configuration not stated) |
| 140 | Nc1c(Cl)ncnc1NCc1ccccn1 |
| 221 to 222 | Cc1noc2cc3c(cc12)C1(CO3)C(=O)N(Cc2ncccc2C(F)(F)F)c2ccccc21 (configuration not stated) |
| 124 to 125 | O=C(N[C@@H](CC1CCCCC1)C(=O)N[C@@H](Cc1ccccc1)C(=O)CSCc1ccco1)OCc1ccccc1 |
| 108 to 110 | CCOc1cc(C(=O)c2c(-c3ccc(OC)cc3)sc3cc(OC)ccc23)cc(OCC)c1OCC |
| > 250 | Oc1ccc(-c2nc(-c3ccc(Sc4ccccc4)cc3)nc(-c3ccc(O)cc3O)n2)c(O)c1 |
| 56 to 58 | C#CCOc1nc(N)c(C(F)(F)F)cc1Cl |
| 182 to 183 | O=C(O)Cc1ccc([N+](=O)[O-])c(C(=O)c2ccc(Cl)cc2)c1 |
| 249 to 250 | COc1cc(Cl)cc(C)c1Nc1nc2c(Cl)ccc(C(=O)C(C)(C)C)c2n1C |

| melting point [°C] | SMILES |
| --- | --- |
| 96 | CC1(C)CCC(=C[C@H]2[C@H](C(=O)O)C2(C)C)CC1 (relative stereo) |
| 109 | COc1ncccc1C(=O)N(C(C)C)C(C)C |
| 40 to 44 | CNCCCOc1ccc(-c2nnc(CSCCOc3ccccc3)o2)cc1 |
| 186 to 188 | COc1cc(C)nc(NC(=S)NS(=O)(=O)c2ccccc2Cl)n1 |
| 233 to 234 | CCOC(=O)c1cnc(Nc2cccc(OC)c2)[nH]c1=O |
| 198 to 199 | Cn1c(=O)oc2cc3c(cc21)OCC31C(=O)N(Cc2ccc(C(F)(F)F)o2)c2ccccc21 (configuration not stated) |
| 163 | CN1C(=O)CC[C@]2(C)c3ccc(-c4cccc(C=O)c4)cc3CC[C@@H]12 |
| 52.5 to 53 | COc1cc(C)nc(-n2cccn2)n1 |
| 196 | CCC(=O)N[C@H]1CC[C@H](CCN2CCN(c3nccc4c3OCC4)CC2)CC1 |
| 166 to 167 | Clc1ccc(-c2nc(Cl)c3ccccc3n2)cc1 |
| 116 to 118 | Cc1cc(Oc2c(Cl)cc(C(F)(F)F)cc2Cl)nn1C(=O)NCCCl |
| 209 to 211 | NC(=O)CC(NC(=O)C(CO)NC(=O)CNC(=O)CNC(=O)C1CCC(=O)N1)C(=O)NC(Cc1ccccc1)C(=O)NCCc1ccccc1 (configuration not stated) ([pGlu]GGSNF-NHPhenethyl; configuration not given here) |
| 94.2 | C=CCC(C#N)(C#N)Cc1ccc([N+](=O)[O-])cc1 |
| 146 to 147 | CCCCN(Cc1ccc(-c2ccccc2-c2nc(=O)o[nH]2)cc1)c1ncccc1C(=O)OCC |
| 153 to 155 | CC(c1cccc(C(F)(F)F)c1N)S(C)(=O)=O (configuration not stated) |
| 52 | Fc1ccc(-c2nccc(Oc3cccc(C(F)(F)F)c3)n2)cc1 |
| 114 to 116 | Cc1c(O)ccc2c(C(F)(F)F)cc(=O)oc12 |
| 241 to 242 | O=C1c2ccccc2C(=O)N1OCC1OC(n2ccc(=O)[nH]c2=O)CC1O (configuration not stated) |
| 165 to 167 | Nc1nc(N2CCOCC2)c2ncn(C3CC(F)C(CO)O3)c2n1 (configuration not stated) |
| 143 to 145 | O=C(NCc1cccc(C(F)(F)F)c1)c1ccc2n1Cc1ccccc1N(C(=O)COc1ccc(Cl)cc1)C2 |
| 116 | COC(C)=CC(=O)NC1CCCCCCC1 |
| 101 | Cc1cccc2nnc(-c3ccccc3)cc12 |

| SMILES | melting point [°C] |
| --- | --- |
| CN(C)C(=N[N+](=O)[O-])NCc1cnc(Cl)s1 | 155 to 160 |
| O=C1CN2CCOC2(c2ccccc2F)c2cc(Cl)ccc2N1 (configuration not stated) | 183 to 184 |
| CCOC(=O)c1ncn2c1CN=C(c1ccccc1F)c1cc(Br)ccc1-2 | 200 to 202 |
| O=[N+]([O-])c1ccc(-c2nc(-c3ccc([N+](=O)[O-])cc3)c(-c3ccc([N+](=O)[O-])cc3)[nH]2)cc1 | 320 to 322 |
| CC1(C)OC(=O)C(=[N+]=[N-])C(=O)O1 | 93 to 94 |
| CC1(C)CCC(C)(C)c2cc(-c3nc4ccc(C(=O)O)cc4s3)ccc21 | 292 to 293 |
